Experimental data taken from patent US8110570B2, “Modulators of acetyl-coenzyme A carboxylase and methods of use thereof” (Cropsolution, Inc., priority 2008, dated 2012).

Legend:
[1] = tested on: PC-3 human prostate cancer cells; experiment: MTT Cell Proliferation Assay; format: cell-based; settings: 72 hours, read-out: Percent of Control PC-3
Protocol: (§1) The anti-proliferative activity of test compounds against human tumor cell lines is evaluated in vitro using the ATCC's MTT Cell Proliferation Assay (Catalog No. 30-100K). Cell lines are grown using media, serum, and culture conditions recommended by the ATCC. Stock cultures are allowed to grow to 70-80% confluence. Cells are seeded into 96-well culture plates at a predetermined density on day 0 in complete medium (0.1 mL). Plates are placed in a humidified incubator at 37° C. with 5% CO2 and 95% HEPA filtered room air for 24 hours. At this point compound (0.1 mL of 2× stock (in media)) is added to the indicated wells and the plates are returned to the incubator for 72 hours. Cell proliferation is measured by addition of MTT reagent to each well and incubated for an additional 4 hours, followed by addition of cell lysis/MTT solublization reagent and incubating overnight. […] Results are expressed as percent of control cells versus compound concentration. Compounds of the present invention, and salts thereof, were evaluated for anti-proliferative activity as described above.

[2] = tested on: HCT-116 human colon cancer cells; experiment: MTT Cell Proliferation Assay; format: cell-based; settings: 72 hours, read-out: Percent of Control HCT-116
Protocol: as §1

[3] = tested on: MDA-MB-231 human breast cancer cells; experiment: MTT Cell Proliferation Assay; format: cell-based; settings: 72 hours, read-out: Percent of Control MDA-MB-231
Protocol: as §1

[4] = tested on: A2780 human ovary cancer cells; experiment: MTT Cell Proliferation Assay; format: cell-based; settings: 72 hours, read-out: Percent of Control A2780
Protocol: as §1

hACC1 = molecular target: T1, hACC1 (Homo sapiens, UniProt Q13085); experiment: [14C]bicarbonate incorporation assay, overall ACC activity; format: biochemical; settings: recombinant hACC1, overall ACC activity
T1 construct: PCR primers were designed for full-length hACC1 and hACC2 using GenBank submissions AY237919 and AJ575592, respectively; His tag (C); made in house; host or cells: baculovirus, Sf9 insect cells
Protocol: (§2) In vitro IC50 values of human ACC were determined using recombinant enzyme produced by standard procedures. For example, full-length cDNAs for both the human isoforms (hACC1 and hACC2) were each cloned and expressed as a recombinant protein using a baculovirus system. Double stranded cDNA from human fetal liver (Quick-Clone cDNA, cat. #7171-1) was purchased from BD/Clontech (Mt. View, Calif.). PCR primers were designed for full-length hACC1 and hACC2 using GenBank submissions AY237919 and AJ575592, respectively. The Advantage GC 2 PCR kit (BD/Clontech) was used for amplification. The PCR products (about 7 Kb) were TOPO-cloned into the pCR4Blunt vector (Invitrogen, Carlsbad, Calif.), and 6 clones of each gene were isolated. […] Full length versions of the two cDNAs corresponding to their respective Genbank sequences were assembled in pBluescript SK+ (Stratagene, La Jolla, Calif.) by combining error-free fragments from the PCR clones. The resulting hACC1 clone, designated pCS35, has six silent nucleotide differences compared to Genbank accession AY237919. The final hACC2 clone, designated pCS36, has ten silent nucleotide differences compared to Genbank accession AJ575592. Primers were designed to PCR amplify the cDNAs along with the in-frame 3′-his tag sequences from the pET vector and TOPO-cloned the resulting products into the Gateway® entry vector pENTR/D-TOPO. The ACC2 primers were designed to delete amino acids 1-148 and add Met-Gly in front of Lys149 in the final product. The resulting entry clones were transferred to BaculoDirect™ linear DNA (Invitrogen corp.) using the Gateway® LR recombination reaction. The recombinant baculovirus DNA was transfected into insect cells and viral amplification was performed according to the manufacturer's protocols. For protein expression sf9 cells were infected with a P3 viral stock in the presence of 50 uM biotin. The cells were harvested after 48-72 hr, lysed by sonication, and the resulting extract was clarified by centrifugation. ACC in the crude extract was concentrated by ammonium sulfate precipitation (40% w/v) and purified by Ni^2+-NTA chromatography (Novagen) followed by anion exchange chromatography on a UNO-Q column (BioRad).
(§3) Overall ACC activity in the hACC preparations is measured by following incorporation of [^14C]bicarbonate into […] essentially as described (Thumpy and Wakil, J Biol Chem 260, 6318-6323 (1985). Briefly, the reaction mixture (50 μL) contains: 50 mM Hepes (pH7.4), 20 mM K-Citrate, 20 mM Mg-Acetate 1.5 mM MgSO4, 2 mM DTT, 2 mM acetyl-CoA, 12 mM NaHCO3, 0.2 mM NaH^14CO3 (˜50 mCi/mmol), 0.01% (v/v) Triton X-100, 0.75 mg/mL BSA, 1% (v/v) DMSO (with or without inhibitor), and 0.3 μg (hACC1) or 0.15 μg (hACC2) enzyme. Reactions are initiated by the addition of ATP to a final concentration 2 mM. After 10 minutes at 37° C., the reaction is stopped by the addition of 2N HCl (50 μL). The samples are evaporated in a hood overnight, resuspended in H2O (200 μL), and incorporated label is quantified by scintillation counting in scintillation cocktail (3 mL). Inhibition data are fit to dose-response curves and IC50 values are reported (i.e. the concentration of inhibitor that gives 50% inhibition).

hACC2 = molecular target: T2, hACC2 (Homo sapiens, UniProt O00763); experiment: as above; format: biochemical; settings: recombinant hACC2, overall ACC activity
T2 construct: delete amino acids 1-148 and add Met-Gly in front of Lys149 in the final product; His tag (C); made in house; host or cells: baculovirus, Sf9 insect cells
T2 sequence (O00763 149-2458 limits assumed): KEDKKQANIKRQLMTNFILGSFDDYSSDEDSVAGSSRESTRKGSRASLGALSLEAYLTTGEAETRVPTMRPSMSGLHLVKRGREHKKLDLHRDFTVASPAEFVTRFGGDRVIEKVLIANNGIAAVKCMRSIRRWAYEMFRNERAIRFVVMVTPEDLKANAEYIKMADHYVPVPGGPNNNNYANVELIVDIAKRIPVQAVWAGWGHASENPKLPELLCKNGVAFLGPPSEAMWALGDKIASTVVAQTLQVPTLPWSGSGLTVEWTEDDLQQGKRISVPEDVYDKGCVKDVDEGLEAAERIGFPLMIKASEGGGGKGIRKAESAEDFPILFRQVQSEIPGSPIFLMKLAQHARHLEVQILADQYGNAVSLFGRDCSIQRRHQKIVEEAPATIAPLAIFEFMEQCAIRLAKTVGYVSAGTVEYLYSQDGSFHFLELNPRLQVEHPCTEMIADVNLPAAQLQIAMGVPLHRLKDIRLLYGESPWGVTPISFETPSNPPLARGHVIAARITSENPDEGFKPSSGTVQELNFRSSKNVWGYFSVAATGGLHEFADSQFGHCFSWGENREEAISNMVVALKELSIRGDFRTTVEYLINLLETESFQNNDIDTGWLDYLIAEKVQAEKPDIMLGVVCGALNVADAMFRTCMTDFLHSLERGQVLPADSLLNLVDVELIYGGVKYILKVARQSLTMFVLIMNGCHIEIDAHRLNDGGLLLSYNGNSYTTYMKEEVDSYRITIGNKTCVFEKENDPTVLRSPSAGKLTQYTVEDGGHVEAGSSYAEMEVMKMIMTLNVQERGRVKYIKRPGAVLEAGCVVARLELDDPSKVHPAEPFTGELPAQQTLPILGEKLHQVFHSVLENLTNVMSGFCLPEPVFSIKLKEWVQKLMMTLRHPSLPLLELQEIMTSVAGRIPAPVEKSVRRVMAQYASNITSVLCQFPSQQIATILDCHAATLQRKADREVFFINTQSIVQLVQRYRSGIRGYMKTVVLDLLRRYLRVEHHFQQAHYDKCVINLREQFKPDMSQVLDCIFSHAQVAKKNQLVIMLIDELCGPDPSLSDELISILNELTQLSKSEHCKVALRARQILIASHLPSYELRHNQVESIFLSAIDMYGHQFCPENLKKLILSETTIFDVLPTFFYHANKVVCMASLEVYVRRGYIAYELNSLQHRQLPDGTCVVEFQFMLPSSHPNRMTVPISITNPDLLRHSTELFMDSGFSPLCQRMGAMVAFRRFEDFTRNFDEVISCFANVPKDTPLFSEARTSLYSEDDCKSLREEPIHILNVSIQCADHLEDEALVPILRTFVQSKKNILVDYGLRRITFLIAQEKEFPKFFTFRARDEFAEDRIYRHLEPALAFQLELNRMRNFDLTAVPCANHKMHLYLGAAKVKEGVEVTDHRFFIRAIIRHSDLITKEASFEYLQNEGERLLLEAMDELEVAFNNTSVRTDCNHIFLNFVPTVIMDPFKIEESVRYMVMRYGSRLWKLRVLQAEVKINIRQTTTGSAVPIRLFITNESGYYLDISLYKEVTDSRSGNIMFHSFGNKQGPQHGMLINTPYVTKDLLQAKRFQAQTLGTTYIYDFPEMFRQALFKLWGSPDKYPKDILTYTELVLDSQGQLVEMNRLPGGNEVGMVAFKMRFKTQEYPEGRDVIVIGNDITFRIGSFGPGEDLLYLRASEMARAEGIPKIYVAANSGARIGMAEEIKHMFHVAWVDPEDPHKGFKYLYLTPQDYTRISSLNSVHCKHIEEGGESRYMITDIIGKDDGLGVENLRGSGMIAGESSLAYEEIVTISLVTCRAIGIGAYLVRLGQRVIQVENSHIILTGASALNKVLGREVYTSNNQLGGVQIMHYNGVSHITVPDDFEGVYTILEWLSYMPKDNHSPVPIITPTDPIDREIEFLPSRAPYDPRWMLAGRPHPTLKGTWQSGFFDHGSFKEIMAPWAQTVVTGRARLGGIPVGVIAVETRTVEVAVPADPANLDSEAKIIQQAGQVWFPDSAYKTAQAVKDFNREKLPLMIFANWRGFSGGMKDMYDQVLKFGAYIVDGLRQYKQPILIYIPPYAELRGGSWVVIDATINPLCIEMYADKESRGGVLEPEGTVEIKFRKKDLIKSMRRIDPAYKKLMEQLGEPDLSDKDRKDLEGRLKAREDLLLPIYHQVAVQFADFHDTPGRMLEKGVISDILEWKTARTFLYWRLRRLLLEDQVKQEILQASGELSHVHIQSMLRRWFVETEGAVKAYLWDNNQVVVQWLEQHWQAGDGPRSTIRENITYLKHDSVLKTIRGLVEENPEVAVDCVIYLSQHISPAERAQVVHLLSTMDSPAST
Protocol: as §2, §3

| SMILES | IC50 (hACC1) | IC50 (hACC2) | further results |
| --- | --- | --- | --- |
| COc1ccc2c(c1)C(=O)NC1(CCN(C(=O)c3cc(OC)c4cccc(OC)c4n3)CC1)N2 [Compound 188] | 260 nM |  | activity at 3.3 µM [1]: 62.6%; activity at 10 µM [1]: 19%; activity at 3.3 µM [2]: 90.3%; activity at 10 µM [2]: 68.2%; activity at 3.3 µM [3]: 70.3%; activity at 10 µM [3]: 28.7%; activity at 3.3 µM [4]: 94.8%; activity at 10 µM [4]: 51.4% |
| COc1ccc2c(c1)C(=O)NC1(CCN(C(=O)c3[nH]c4c(OC)cccc4c3C)CC1)O2 [Compound 151] | 82 nM | 96 nM | activity at 3.3 µM [1]: 86.1%; activity at 10 µM [1]: 68.5%; activity at 3.3 µM [2]: 78.6%; activity at 10 µM [2]: 61.8%; activity at 3.3 µM [3]: 82.9%; activity at 10 µM [3]: 50.1%; activity at 3.3 µM [4]: 92.7%; activity at 10 µM [4]: 64% |
| COc1cc2c(OC)cccc2cc1C(=O)N1CCC2(CC1)NC(=O)c1cc(Cl)ccc1O2 [Compound 131, 6-Chloro-1′-[(3,5-dimethoxynaphth-2-yl)carbonyl]spiro[2H-1,3-benzoxazin-2,4′-piperidin]-4-(3H)-one] | 1900 nM | 450 nM |  |
| COc1cc(C(=O)N2CCC3(CC2)NC(=O)c2cc4ccccc4cc2O3)nc2c(OC)cccc12 [Compound 159] | 4 nM | 5 nM |  |
| COc1cc(C(=O)N2CCC3(CC2)NC(=O)c2cc(Br)ccc2N3)nc2c(C(C)C)cccc12 [Compound 91] | 2000 nM | 3700 nM |  |
| COC(=O)c1ccc2c(c1)C(=O)NC1(CCN(C(=O)c3cc(OC)c4cccc(OC)c4n3)CC1)O2 [Compound 201] | 20 nM | 18 nM | activity at 3.3 µM [1]: 52.7%; activity at 10 µM [1]: 37.1%; activity at 3.3 µM [2]: 59.8%; activity at 10 µM [2]: 46.8%; activity at 3.3 µM [3]: 82.5%; activity at 10 µM [3]: 61.5%; activity at 3.3 µM [4]: 83.2%; activity at 10 µM [4]: 46.4% |
| O=C1NC2(CCN(C(=O)c3ccc4[nH]nnc4c3)CC2)Oc2ccc(Br)cc21 [Compound 110, 1′-[(1H-benzotriazol-5-yl)carbonyl]-6-bromospiro[2H-1,3-benzoxazin-2,4′-piperidin]-4-(3H)-one] | 6700 nM | 4600 nM |  |
| COc1cc(C(=O)N2CCC3(CC2)NC(=O)c2cc(-c4nnn[nH]4)ccc2O3)nc2c(OC)cccc12 [Compound 10] | 16 nM | 11 nM |  |
| COc1cc2c(OC)cccc2cc1C(=O)N1CCC2(CC1)NC(=O)c1cc(Br)ccc1N2 [Compound 90] | 2200 nM | 1100 nM |  |
| COc1cc(C(=O)N2CCC3(CC2)NC(=O)c2cc4ccccc4cc2O3)cc2c(OC)cccc12 [Compound 160] | 4 nM | 3 nM |  |
| O=C1NC2(CCN(C(=O)c3ccc4[nH]cnc4c3)CC2)Oc2ccc(Br)cc21 [Compound 109, 1′-[(1H-benzimidazol-5-yl)carbonyl]-6-bromospiro[2H-1,3-benzoxazin-2,4′-piperidin]-4-(3H)-one] | 600 nM | 2900 nM |  |
| COc1ccc2c(c1)C(=O)NC1(CCN(C(=O)c3cc(OC)c4cccc(OC)c4c3)CC1)N2 [Compound 187] | 87 nM |  | activity at 3.3 µM [1]: 69.9%; activity at 10 µM [1]: 52.2%; activity at 3.3 µM [2]: 71%; activity at 10 µM [2]: 56.1%; activity at 3.3 µM [3]: 80.8%; activity at 10 µM [3]: 45.6%; activity at 3.3 µM [4]: 102%; activity at 10 µM [4]: 64.9% |
| COc1cc(C(=O)N2CCC3(CC2)NC(=O)c2cc(C(C)C)ccc2O3)cc2[nH]ncc12 [Compound 231] | 47 nM | 33 nM |  |
| COc1cccc2c(C)c(C(=O)N3CCC4(CC3)NC(=O)c3cc(Br)ccc3O4)[nH]c12 [Compound 23] | 140 nM | 180 nM |  |

Continued, in another order:

| IC50 (hACC1) | IC50 (hACC2) | SMILES | further results |
| --- | --- | --- | --- |
| 1000 nM | 490 nM | COc1cc(C(=O)N2CCC3(CC2)NC(=O)c2cc(Br)ccc2N3)nc2c(OC)cccc12 [Compound 71, 6′-Bromo-1-[(4,8-dimethoxyquinoline-2-yl)carbonyl]spiro[piperidine-4,2′(1′H)-quinazolin]-4′-(3′H)-one] |  |
| 260 nM | 200 nM | COc1ccc(OC)c2[nH]c(C(=O)N3CCC4(CC3)NC(=O)c3cc(Br)ccc3O4)cc12 [Compound 16] |  |
| 4 nM | 3 nM | COc1ccc2c(c1)C(=O)NC1(CCN(C(=O)c3cc(OC)c4cccc(OC)c4c3)CC1)O2 [Compound 152, 1′-[(4,8-Dimethoxynaphth-2-yl)carbonyl]-6-methoxyspiro[2H-1-1,3-benzoxazin-2,4′-piperidin]-4-(3H)-one] | activity at 3.3 µM [1]: 88%; activity at 3.3 µM [2]: 53.3%; activity at 10 µM [2]: 42%; activity at 3.3 µM [3]: 57%; activity at 10 µM [3]: 25.7%; activity at 3.3 µM [4]: 84.1%; activity at 10 µM [4]: 56.9% |
| 1300 nM | 700 nM | O=C1NC2(CCN(C(=O)c3cccc(-c4cc[nH]n4)c3)CC2)Oc2ccc(Br)cc21 [Compound 103, 6-Bromo-1′-[3-(1H-pyrazol-3-yl)benzoyl]spiro[2H-1,3-benzoxazin-2,4′-piperidin]-4-(3H)-one] |  |
| 260 nM | 310 nM | COc1ccc(OC)c2[nH]c(C(=O)N3CCC4(CC3)NC(=O)c3cc(NC(C)=O)ccc3O4)cc12 [Compound 17] |  |
| 140 nM | 110 nM | COc1cc(C(=O)N2CCC3(CC2)NC(=O)c2cc(Br)ccc2O3)nc2c(SC)cccc12 [Compound 133] |  |
| 92 nM | 56 nM | COc1cc(C(=O)N2CCC3(CC2)NC(=O)c2cc(NC(C)=O)ccc2O3)nc2c(OC)cccc12 [Compound 9] |  |
| 35 nM | 25 nM | CCOc1ccc2c(c1)C(=O)NC1(CCN(C(=O)c3cc(OC)c4cccc(SC)c4n3)CC1)O2 [Compound 149] |  |
| 75 nM | 55 nM | COc1cc(C(=O)N2CCC3(CC2)NC(=O)c2cc(NC(C)=O)ccc2O3)nc2c(SC)cccc12 [Compound 136] |  |
| 90 nM | 83 nM | COc1ccc(OC)c2c1cc(C(=O)N1CCC3(CC1)NC(=O)c1cc(OC(C)C)ccc1O3)n2C [Compound 185] |  |
| 67 nM | 29 nM | COc1cc(C(=O)N2CCC3(CC2)NC(=O)c2cc(C)ccc2O3)nc2c(OC)cccc12 [Compound 137] |  |
| 88 nM | 66 nM | COc1cc(C(=O)N2CCC3(CC2)NC(=O)c2cc(C)ccc2O3)nc2c(SC)cccc12 [Compound 148] |  |
